The supplement of paper PMC10307832

How the values were obtained:
Test in all cases: relative viability (nuclei count vs DMSO), 5 days (fraction); higher = more cells survive
[1] = system: NCI-H1792
Summary of the method: (§1)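 Values are medians from duplicate plates. Each reflects relative viability, defined as the nuclei count of treated wells over that of vehicle wells. Lung cancer cell lines in 1536-well plates were pin-tool dosed one day after seeding with one drug alone or with a fixed anchor-drug dose plus five library-drug doses (not always all listed) in √10 steps, then fixed, stained and imaged at 4× after 5 days.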

[2] = system: PC-3 [JPC-3]
Summary of the method: as §1

[3] = system: NCI-H2009
Summary of the method: as §1

[4] = system: LU99A
Summary of the method: as §1

[5] = system: SK-LU-1
Summary of the method: as §1

[6] = system: NCI-H596
Summary of the method: as §1

[7] = system: A-427
Summary of the method: as §1

[8] = system: SW 1573
Summary of the method: as §1

[9] = system: NCI-H2170
Summary of the method: as §1

[10] = system: LXF-289
Summary of the method: as §1

[11] = system: NCI-H1944
Summary of the method: as §1

## COc1cc(N2CCC(C(N)=O)CC2)ccc1Nc1nc(N)c(Cl)c(Nc2ccccc2S(=O)(=O)C(C)C)n1 [HG-5-88-01] + C[C@@H](Oc1cc(-c2cnn(C3CCNCC3)c2)cnc1N)c1c(Cl)ccc(F)c1Cl [Crizotinib] (partner 1 µM)
[1]; first compound 0.04 µM
  relative viability: 1.11
[1]; first compound 0.1265 µM
  relative viability: 0.968
[1]; first compound 0.4 µM
  relative viability: 0.869
[1]; first compound 1.265 µM
  relative viability: 0.947
[1]; first compound 4 µM
  relative viability: 0.978
[2]; first compound 0.04 µM
  relative viability: 0.983
[2]; first compound 0.1265 µM
  relative viability: 1.03
[2]; first compound 0.4 µM
  relative viability: 1.07
[2]; first compound 1.265 µM
  relative viability: 0.937
[2]; first compound 4 µM
  relative viability: 0.64
[3]; first compound 0.04 µM
  relative viability: 1.05
[3]; first compound 0.1265 µM
  relative viability: 1.03
[3]; first compound 0.4 µM
  relative viability: 0.938
[3]; first compound 1.265 µM
  relative viability: 0.962
[3]; first compound 4 µM
  relative viability: 0.853
[4]; first compound 0.04 µM
  relative viability: 0.554
[4]; first compound 0.1265 µM
  relative viability: 0.615
[4]; first compound 0.4 µM
  relative viability: 0.511
[4]; first compound 1.265 µM
  relative viability: 0.491
[4]; first compound 4 µM
  relative viability: 0.423
[5]; first compound 0.04 µM
  relative viability: 1.04
[5]; first compound 0.1265 µM
  relative viability: 0.793
[5]; first compound 0.4 µM
  relative viability: 0.867
[5]; first compound 1.265 µM
  relative viability: 0.845
[5]; first compound 4 µM
  relative viability: 0.595
[6]; first compound 0.04 µM
  relative viability: 0.949
[6]; first compound 0.1265 µM
  relative viability: 1.04
[6]; first compound 0.4 µM
  relative viability: 1.02
[6]; first compound 1.265 µM
  relative viability: 0.936
[6]; first compound 4 µM
  relative viability: 0.734
[7]; first compound 0.04 µM
  relative viability: 0.93
[7]; first compound 0.1265 µM
  relative viability: 0.952
[7]; first compound 0.4 µM
  relative viability: 0.951
[7]; first compound 1.265 µM
  relative viability: 0.843
[7]; first compound 4 µM
  relative viability: 0.791
[8]; first compound 0.04 µM
  relative viability: 0.806
[8]; first compound 0.1265 µM
  relative viability: 0.848
[8]; first compound 0.4 µM
  relative viability: 0.907
[8]; first compound 1.265 µM
  relative viability: 0.568
[8]; first compound 4 µM
  relative viability: 0.475
[9]; first compound 0.04 µM
  relative viability: 1.23
[9]; first compound 0.1265 µM
  relative viability: 1.24
[9]; first compound 0.4 µM
  relative viability: 1.18
[9]; first compound 1.265 µM
  relative viability: 0.977
[9]; first compound 4 µM
  relative viability: 1.28
[10]; first compound 0.04 µM
  relative viability: 0.804
[10]; first compound 0.1265 µM
  relative viability: 0.797
[10]; first compound 0.4 µM
  relative viability: 0.851
[10]; first compound 1.265 µM
  relative viability: 0.831
[10]; first compound 4 µM
  relative viability: 0.827
[11]; first compound 0.04 µM
  relative viability: 1.09
[11]; first compound 0.1265 µM
  relative viability: 1.13
[11]; first compound 0.4 µM
  relative viability: 1.09
[11]; first compound 1.265 µM
  relative viability: 0.82
[11]; first compound 4 µM
  relative viability: 1.06
